Measured values published in patent publication US20200222474A1, “COMPOSITIONS AND METHODS FOR INCREASING PHYTOCHEMICAL BIOAVAILABLITY AND BIOACTIVITY” (North Carolina State University, priority 2017, published 2020).

Tests used:
L. acidophilus NCFM [1] = assay: Growth of L. acidophilus NCFM on plant glycosides as single carbon source (OD600); format: cell-based, Lactobacillus acidophilus; settings: for OD600 max: single carbon source, 200 μl cultures, 96 microtitre plates, corrected for medium without carbon source
Method: (§1) For initial growth and gene expression studies, L. acidophilus NCFM was propagated three times in semi-defined medium (SDM) supplemented with either 1% or 0,5% (w/v) of the plant glycoside or carbohydrate (Table 1). For the RNA-seq analysis, cells were harvested by centrifugation (3,220×10 min, 25° C.) in the mid-exponential phase (OD600=0.6-0.8) and stored at −80° C. for subsequent RNA isolation. For the mass spectrometry metabolite analyses, 200 μt samples were taken at 0, 3, 6, 9, 12, and 24 hours of growth; cells were removed by centrifugation; and supernatants were stored at −80° C. for further analysis.
(§2) Phenotypic growth assays were performed using 1% (v/v) overnight cultures of L. acidophilus strains (Table 2) and other Lactobacillus species (Table 3) grown on SDM supplemented with 1% (w/v) glucose to inoculate 200 μL of SDM supplemented with 1% (w/v) of the examined carbohydrate (0.5% in the case of esculin) in 96-well microplate wells (Corning Costar, Corning, N.Y., USA) in duplicate or triplicate wells, respectively. The microplates were sealed with clear adhesive film, incubated at 37° C. in a Fluostar Optima microplate reader (BMG Labtech, Cary, N.C., USA), and the cell optical density (OD600) was monitored for 30 hours.
The growth of L. acidophilus NCFM was evaluated on twelve chemically diverse, nutritionally relevant and/or therapeutically active PGs 1; Table 1). FIG. 1A provides the structures and common sources of plant glycoside substrates described herein. The compounds that support growth of Lactobacillus acidophilus are in green. RI: β-D-Glcp; R2: Gentiobioside (β-D-Glcp-(1,6)-D-Glcp); R3: Rutinoside (α-L-Rhaf-(1,6)-D-Glcp). The graph in FIG. 1B depicts plant glycoside utilization analyzed by mass spectrometry and the growth as the maximum OD600. Due to the low solubility of polydatin, OD600 cannot be used as a growth metric and utilization of this compound is confirmed by the production of lactate as well as a high utilization level based on the metabolite analysis.

L. acidophilus NCFM [2] = assay: Plant glycoside uptake and metabolite analysis of L. acidophilus NCFM culture supernatants by UHPLC-DAD-Q-TOF-MS; format: cell-based, Lactobacillus acidophilus; settings: qualitative: depletion of the plant glycoside and/or appearance of its metabolites
Method: as §1
Analysis of plant glycoside uptake from L. acidophilus NCFM culture supernatants using mass spectrometry. The supernatants of L. acidophilus NCFM cultures grown on amygdalin, arbutin, esculin or salicin as carbon sources were analyzed during 24 hours by ultra-high performance liquid chromatography-diode array detection-quadruple time of flight mass spectrometry (UHPLC-DAD-Q-TOF-MS). Samples were diluted 1:20 (v/v) with methanol and an injection volume of […] was used. Separation was carried out on an Agilent Poroshell 120 phenyl-hexyl column (2.1×150 mm, 2.7 μm) using the Agilent Infinity 1290 UHPLC system (Agilent Technologies, Santa Clara, Calif., USA) equipped with a UV/vis spectrum diode array detector. Separation was performed at 0.35 mL min-1., 60° C. with a linear gradient consisting of water (A) and acetonitrile (B) both buffered with 20 mM formic acid, starting at 10% B and increased to 100% in 15 min where it was held for 2 min, returned to 10% in 0.1 min and kept for 3 min. MS detection was performed on an Agilent 6550 iFunnel QTOF MS equipped with Agilent Dual Jet Stream electrospray ion source with the drying gas temperature of 160° C. and gas flow of 13 L min^−1, whereas the sheath gas temperature was 300° C. and flow was 16 L min-1. Ionization was conducted in ESI-mode with capillary voltage set to 4000 V and nozzle voltage to 500 V. Mass spectra were recorded as centroid data for m/z 85-1700 in MS mode with an acquisition rate of 10 spectra s^−1. To avoid carry-over, the needle seat was back-flushed for 15 s at 4 mL min-1 with each of: i) isopropanol: 0.2% ammonium hydroxide (w/v) in water (1:1 v/v); ii) acetonitrile with 2% formic acid (w/v); iii) water with 2% formic acid. Data was processed with the Agilent Mass Hunter Qualitative Analysis B.07.00 software package (Agilent Technologies) and molar concentrations were obtained from standard curves of the plant glycosides and their main metabolites. Targeted compound searches were performed using lists of previously identified compounds plus standard chemical modifications.

[3] = tested on: L. rhanmosus GG (ATCC 53103); assay: Phenotypic growth assay (OD600); format: cell-based; settings: SDM + 1% (w/v) carbohydrate (0.5% esculin), 37° C., 30 hours; corrected to medium without carbohydrate
Method: as §2

L. helveticus CNRZ32 = assay: Phenotypic growth assay (OD600); format: cell-based; settings: SDM + 1% (w/v) carbohydrate (0.5% esculin), 37° C., 30 hours; corrected to medium without carbohydrate
Method: as §2

L. johnsonii ATCC 33200 = assay: Phenotypic growth assay (OD600); format: cell-based; settings: SDM + 1% (w/v) carbohydrate (0.5% esculin), 37° C., 30 hours; corrected to medium without carbohydrate
Method: as §2

L. animalis DSM 20602 = assay: Phenotypic growth assay (OD600); format: cell-based; settings: SDM + 1% (w/v) carbohydrate (0.5% esculin), 37° C., 30 hours; corrected to medium without carbohydrate
Method: as §2

L. gasseri ATCC 33323 = assay: Phenotypic growth assay (OD600); format: cell-based; settings: SDM + 1% (w/v) carbohydrate (0.5% esculin), 37° C., 30 hours; corrected to medium without carbohydrate
Method: as §2

[4] = tested on: L. crispatus ATCC 33820, DSM 20584; assay: Phenotypic growth assay (OD600); format: cell-based; settings: SDM + 1% (w/v) carbohydrate (0.5% esculin), 37° C., 30 hours; corrected to medium without carbohydrate
Method: as §2

[5] = tested on: L. reuteri (ATCC 23272, DSM 20016); assay: Phenotypic growth assay (OD600); format: cell-based; settings: SDM + 1% (w/v) carbohydrate (0.5% esculin), 37° C., 30 hours; corrected to medium without carbohydrate
Method: as §2

[6] = tested on: L. jensenii ATCC 25258, 62G, DSM 20557; assay: Phenotypic growth assay (OD600); format: cell-based; settings: SDM + 1% (w/v) carbohydrate (0.5% esculin), 37° C., 30 hours; corrected to medium without carbohydrate
Method: as §2

[7] = tested on: L. plantarum sp. plantarum ATCC 14917, LA70; assay: Phenotypic growth assay (OD600); format: cell-based; settings: SDM + 1% (w/v) carbohydrate (0.5% esculin), 37° C., 30 hours; corrected to medium without carbohydrate
Method: as §2

[8] = tested on: L. amyloverus ATCC 33620, DSM 20531; assay: Phenotypic growth assay (OD600); format: cell-based; settings: SDM + 1% (w/v) carbohydrate (0.5% esculin), 37° C., 30 hours; corrected to medium without carbohydrate
Method: as §2

[9] = tested on: L. intestinalis Th4, ATCC 49335, DSM 6629; assay: Phenotypic growth assay (OD600); format: cell-based; settings: SDM + 1% (w/v) carbohydrate (0.5% esculin), 37° C., 30 hours; corrected to medium without carbohydrate
Method: as §2

L. fermentum ATCC 14931 = assay: Phenotypic growth assay (OD600); format: cell-based; settings: SDM + 1% (w/v) carbohydrate (0.5% esculin), 37° C., 30 hours; corrected to medium without carbohydrate
Method: as §2

L. acidophilus LA-1 = assay: Phenotypic growth assay (OD600); format: cell-based; settings: SDM + 1% (w/v) carbohydrate (0.5% esculin), 37° C., 30 hours; corrected to medium without carbohydrate
Method: as §2

[10] = growth concentration 0.5% (w/v)

For `OC[C@H]1O[C@@H](Oc2ccc(O)cc2)[C@H](O)[C@@H](O)[C@@H]1O` [Arbutin], the “Growth (OD600 max class) of L. acidophilus NCFM” value (L. acidophilus NCFM [1]; SDM + 1% (w/v) carbohydrate (0.5% esculin), 37° C., 30 hours, corrected to medium without carbohydrate) was “− (“−” signifies OD600 max < 0.1.)”, the OD600 max (L. acidophilus NCFM [1]; growth concentration 1% (w/v)) was 0.0 and the “Catabolism based on MS” value (L. acidophilus NCFM [2]; growth concentration 1% (w/v)) was “No”. For the same compound, the “Growth (OD600 max class) of L. rhanmosus GG (ATCC 53103)” value [3] was “+++ (“+++” signifies OD600 max > 0.6.)”, the “Growth (OD600 max class) of L. helveticus CNRZ32” value (L. helveticus CNRZ32) was “− (“−” signifies OD600 max < 0.1.)” and the “Growth (OD600 max class) of L. johnsonii ATCC 33200” value (L. johnsonii ATCC 33200) was “+ (“+” signifies 0.3 > OD600 max > 0.1.)”. For the same compound, the “Growth (OD600 max class) of L. animalis DSM 20602” value (L. animalis DSM 20602) was “+ (“+” signifies 0.3 > OD600 max > 0.1.)”, the “Growth (OD600 max class) of L. gasseri ATCC 33323” value (L. gasseri ATCC 33323) was “− (“−” signifies OD600 max < 0.1.)” and the “Growth (OD600 max class) of L. crispatus ATCC 33820, DSM 20584” value [4] was “− (“−” signifies OD600 max < 0.1.)”. The “Growth (OD600 max class) of L. reuteri (ATCC 23272, DSM 20016)” value [5] was “− (“−” signifies OD600 max < 0.1.)”, the “Growth (OD600 max class) of L. jensenii ATCC 25258, 62G, DSM 20557” value [6] was “+ (“+” signifies 0.3 > OD600 max > 0.1.)” and the “Growth (OD600 max class) of L. plantarum sp. plantarum ATCC 14917, LA70” value [7] was “+++ (“+++” signifies OD600 max > 0.6.)”. For the same compound, the “Growth (OD600 max class) of L. amyloverus ATCC 33620, DSM 20531” value [8] was “− (“−” signifies OD600 max < 0.1.)”, the “Growth (OD600 max class) of L. intestinalis Th4, ATCC 49335, DSM 6629” value [9] was “− (“−” signifies OD600 max < 0.1.)” and the “Growth (OD600 max class) of L. fermentum ATCC 14931” value (L. fermentum ATCC 14931) was “− (“−” signifies OD600 max < 0.1.)”. For the same compound, the “Growth (OD600 max class) of L. acidophilus LA-1” value (L. acidophilus LA-1) was “− (“−” signifies OD600 max < 0.1.)”.
For `C[C@@H]1O[C@@H](OC[C@H]2O[C@@H](Oc3c(-c4ccc(O)c(O)c4)oc4cc(O)cc(O)c4c3=O)[C@H](O)[C@@H](O)[C@@H]2O)[C@H](O)[C@H](O)[C@H]1O` [Rutin hydrate], the OD600 max (L. acidophilus NCFM [1]; [10]) was 0.1.
`O=c1c(-c2ccc(O)cc2)coc2cc(O[C@@H]3O[C@H](CO)[C@@H](O)[C@H](O)[C@H]3O)ccc12` [Daidzin] gave an OD600 max (L. acidophilus NCFM [1]; [10]) of 0.0.
`O=c1c(O[C@@H]2O[C@H](CO)[C@@H](O)[C@H](O)[C@H]2O)c(-c2ccc(O)c(O)c2)oc2cc(O)cc(O)c12` [Isoquercetin] was tested, and the OD600 max (L. acidophilus NCFM [1]; [10]) was 0.0.
`COc1cc2ccc(=O)oc2c(O[C@@H]2O[C@H](CO)[C@@H](O)[C@H](O)[C@H]2O)c1O` [Fraxin] was tested, and the OD600 max (L. acidophilus NCFM [1]; [10]) was 0.4 and the “Catabolism based on MS” value (L. acidophilus NCFM [2]; [10]) was “Yes”.
In the case of `OCc1ccccc1O` [salicyl alcohol], the “ability of the aglycone per se to support growth” value (L. acidophilus NCFM [1]; data not shown) is reported as “unable to support growth”.
With `COc1cc(C=O)ccc1O[C@@H]1O[C@H](CO)[C@@H](O)[C@H](O)[C@H]1O` [Vanilin 4-O-β-glucoside] the OD600 max (L. acidophilus NCFM [1]; [10]) was 1.3 and the “Catabolism based on MS” value (L. acidophilus NCFM [2]; [10]) was “Yes”.
`C=CCC(=NOS(=O)(=O)O)S[C@@H]1O[C@H](CO)[C@@H](O)[C@H](O)[C@H]1O` (stereo in doubt) [Sinigrin hydrate] was tested, and the OD600 max (L. acidophilus NCFM [1]; [10]) was 0.0.
For `OCC1=C[C@@H](O)[C@@H]2C=CO[C@@H](O[C@@H]3O[C@H](CO)[C@@H](O)[C@H](O)[C@H]3O)[C@H]12` [Aucubin], the OD600 max (L. acidophilus NCFM [1]; [10]) was 0.0 and the “Catabolism based on MS” value (L. acidophilus NCFM [2]; [10]) was “No”.
